Experimental findings from patent publication US11845760B2, “PRMT5 inhibitors” (AMGEN INC., priority 2020, dated 2023) are described below.

In experiment [1] the test system is HCT116 WT cells. As to the kind of experiment: HCT116 WT cell line proliferation (CellTiter-Glo cell viability, 6 days). It is filed as cell-based. Conditions: HCT116 WT (parent) cells, 6 days of treatment, CellTiter-Glo cell viability, read-out: HCT-116 WT IC50. Summed up: (§1)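 Viability by CellTiter-Glo after 6 days' drug exposure in wild-type HCT116 and its MTAP-null knockout, with DMSO-only control. Dosing used either 1:3 steps (top 1 or 10 μM) or 22 points in 1:2 steps (top 10 or 50 μM). IC50 taken where the fitted curve crosses 50% of control.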
(ATP-based viability assays read luminescence as a measure of living cells.)

For experiment [2], the system named is HCT116 MTAP null cells. As to the kind of experiment: HCT116 MTAP null cell line proliferation (CellTiter-Glo cell viability, 6 days). It is filed as cell-based. The settings on record: HCT116 MTAP null cells, 6 days of treatment, CellTiter-Glo cell viability, read-out: HCT-116 MTAP null IC50. The procedure, abridged:
as §1

Where two headings read alike, the source gives them in different places. A value given as a limit tells only on which side of the number the result lay.

`CC1(C)CN(C(=O)c2cc3c4c(c(N)nc3cc2F)COC4)C[C@@H]1c1ccc(C(F)(F)F)cc1` (single isomer, unassigned) [Example 473]: the IC50 was determined as 556 nM in experiment [1] (Homo sapiens, HCT-116, 144 h) and 17 nM in experiment [2] (HCT116-MTAP null, 144 h).
In the case of `C[C@@H]1COC[C@H](c2ccc(OC(F)(F)F)cc2)N1C(=O)c1ccc2nc(N)c3c(cnn3C)c2c1` [Example 534, (4-amino-3-methyl-3H-pyrazolo[3,4-c]quinolin-8-yl)((3R,5S)-3-methyl-5-(4-(trifluoromethoxy)phenyl)-4-morpholinyl)methanone], the IC50 in experiment [1] (Homo sapiens, HCT-116, 144 h) is 2610 nM; in experiment [2] (HCT116-MTAP null, 144 h) it was 44 nM.
In the case of `Cc1nc2nc(N)c3cnn(C)c3c2cc1C(=O)N1CCOC[C@@H]1c1ccc(C(F)(F)F)cc1` [Example 415, (4-amino-1,7-dimethyl-1H-pyrazolo[4,3-c][1,8]naphthyridin-8-yl)((3S)-3-(4-(trifluoromethyl)phenyl)-4-morpholinyl)methanone], the IC50 stood at 3340 nM in experiment [1] (Homo sapiens, HCT-116, 144 h) and 73 nM in experiment [2] (HCT116-MTAP null, 144 h).
Turning to `C[C@H]1COC[C@@H](c2ccc(OC(F)F)nn2)N1C(=O)c1cc2c3c(c(N)nc2cc1F)COC3` (racemic) [Example 314, (4-amino-7-fluoro-1,3-dihydrofuro[3,4-c]quinolin-8-yl)((3R,5S)-3-(6-(difluoromethoxy)-3-pyridazinyl)-5-methyl-4-morpholinyl)methanone and (4-amino-7-fluoro-1,3-dihydrofuro[3,4-c]quinolin-8-yl)((3S,5R)-3-(6-(difluoromethoxy)-3-pyridazinyl)-5-methyl-4-morpholinyl)methanone], the IC50 in experiment [1] (Homo sapiens, HCT-116, 144 h) was found to be 606 nM; in experiment [2] (HCT116-MTAP null, 144 h), 15 nM.
In the case of `C[C@@H]1COC[C@H](c2ccc(C(F)(F)F)cn2)N1C(=O)c1cc2c3c(c(N)nc2cn1)COC3` [Example 522, (4-amino-1,3-dihydrofuro[3,4-c][1,7]naphthyridin-8-yl)((3R,5S)-3-methyl-5-(5-(trifluoromethyl)-2-pyridinyl)-4-morpholinyl)methanone], the IC50 worked out at 509 nM in experiment [1] (Homo sapiens, HCT-116, 144 h) and 30 nM in experiment [2] (HCT116-MTAP null, 144 h).
As to `Nc1nc2ccc(C(=O)N3CCOC[C@@H]3c3ccc(Br)cn3)cc2c2c1COC2` (single isomer, unassigned) [Example 573], the IC50 in experiment [1] (Homo sapiens, HCT-116, 144 h) was > 10000 nM; in experiment [2] (HCT116-MTAP null, 144 h) it was 241 nM.
Taken in the same sequence, the figures for `C[C@H]1COC[C@@H](c2ccc(C(F)(F)F)nc2)N1C(=O)c1ccc2nc(N)c3c(c2c1)COC3` (racemic) [Example 303, (4-amino-1,3-dihydrofuro[3,4-c]quinolin-8-yl)((3R,5S)-3-methyl-5-(6-(trifluoromethyl)-3-pyridinyl)-4-morpholinyl)methanone and (4-amino-1,3-dihydrofuro[3,4-c]quinolin-8-yl)((3S,5R)-3-methyl-5-(6-(trifluoromethyl)-3-pyridinyl)-4-morpholinyl)methanone] were 2860 nM and 134 nM.
Regarding `Nc1nc2ccc(C(=O)N3CCOC[C@@H]3c3ccc(C(F)(F)F)nn3)cc2c2c1COC2` (single isomer, unassigned) [Example 593], the IC50 in experiment [1] (Homo sapiens, HCT-116, 144 h) was > 10000 nM; in experiment [2] (HCT116-MTAP null, 144 h), 936 nM.
In the same order, the values of `C[C@H]1COC[C@@H](c2ccc(C(F)(F)F)cn2)N1C(=O)c1ccc2nc(N)c3c(c2c1)COC3` (single isomer, unassigned) [Example 582] are > 10000 nM and > 1000 nM.
As for `C[C@@H]1OCc2c1c(N)nc1cnc(C(=O)N3CCOC[C@@H]3c3ccc(C(F)(F)F)cc3)cc21` (single isomer, unassigned) [Example 453], the IC50 in experiment [1] (Homo sapiens, HCT-116, 144 h) was 40300 nM; in experiment [2] (HCT116-MTAP null, 144 h) it was 2180 nM.
In the same order, the values of `CC1(C)CN(C(=O)c2cc3c4c(c(N)nc3cc2F)COC4)C[C@H]1c1ccc(F)cc1` (single isomer, unassigned) [Example 465] are 3510 nM and 71 nM.
Consider `Nc1nc2cc(Cl)c(C(=O)N3CCOC[C@@H]3c3ccc(S(F)(F)(F)(F)F)cc3)cc2c2c1COC2` [Example 418, (4-amino-7-chloro-1,3-dihydrofuro[3,4-c]quinolin-8-yl)((3S)-3-(4-(pentafluoro-lambda~6~-sulfanyl)phenyl)-4-morpholinyl)methanone], for which the IC50 worked out at 243 nM in experiment [1] (Homo sapiens, HCT-116, 144 h) and 10 nM in experiment [2] (HCT116-MTAP null, 144 h).
Taken in the same sequence, the figures for `C[C@@H]1COC[C@H](c2ccc(OC(F)(F)F)cc2)N1C(=O)c1cc2c(cc1F)nc(N)c1c2cnn1C` [Example 532, (4-amino-7-fluoro-3-methyl-3H-pyrazolo[3,4-c]quinolin-8-yl)((3R,5S)-3-methyl-5-(4-(trifluoromethoxy)phenyl)-4-morpholinyl)methanone] were 400 nM and 19 nM.
As to `Nc1nc2cc(Cl)c(C(=O)N3CCOCC3c3ccnc(C(F)(F)F)c3)cc2c2c1COC2` (racemic) [Example 353, (4-amino-7-chloro-1,3-dihydrofuro[3,4-c]quinolin-8-yl)((3R)-3-(2-(trifluoromethyl)-4-pyridinyl)-4-morpholinyl)methanone and (4-amino-7-chloro-1,3-dihydrofuro[3,4-c]quinolin-8-yl)((3S)-3-(2-(trifluoromethyl)-4-pyridinyl)-4-morpholinyl)methanone], the IC50 in experiment [1] came out at 6890 nM; in experiment [2], 234 nM.
On to `C[C@H]1OCc2c1c(N)nc1cnc(C(=O)N3[C@@H](C)COC[C@H]3c3ccc(Cl)nc3)cc21` (racemic) [Example 310, ((3R)-4-amino-3-methyl-1,3-dihydrofuro[3,4-c][1,7]naphthyridin-8-yl)((3R,5S)-3-(6-chloro-3-pyridinyl)-5-methyl-4-morpholinyl)methanone and ((3R)-4-amino-3-methyl-1,3-dihydrofuro[3,4-c][1,7]naphthyridin-8-yl)((3S,5R)-3-(6-chloro-3-pyridinyl)-5-methyl-4-morpholinyl)methanone], for which the IC50 in experiment [1] (Homo sapiens, HCT-116, 144 h) turned out to be 3230 nM; in experiment [2] (HCT116-MTAP null, 144 h), 66 nM.
`C[C@H]1COC[C@@H](c2ccc(C(F)(F)F)nc2)N1C(=O)c1cc2c3c(c(N)nc2cc1F)COC3` (racemic) [Example 309, (4-amino-7-fluoro-1,3-dihydrofuro[3,4-c]quinolin-8-yl)((3R,5S)-3-methyl-5-(6-(trifluoromethyl)-3-pyridinyl)-4-morpholinyl)methanone and (4-amino-7-fluoro-1,3-dihydrofuro[3,4-c]quinolin-8-yl)((3S,5R)-3-methyl-5-(6-(trifluoromethyl)-3-pyridinyl)-4-morpholinyl)methanone]: the IC50 was determined as 688 nM in experiment [1] (Homo sapiens, HCT-116, 144 h) and 40 nM in experiment [2] (HCT116-MTAP null, 144 h).
In the same order, the values of `Cn1ncc2c(N)nc3cc(Cl)c(C(=O)N4C[C@@H](CO)[C@H](c5ccc(C(F)(F)F)cc5F)C4)cc3c21` [Example 449, (4-amino-7-chloro-1-methyl-1H-pyrazolo[4,3-c]quinolin-8-yl)((3R,4S)-3-(2-fluoro-4-(trifluoromethyl)phenyl)-4-(hydroxymethyl)-1-pyrrolidinyl)methanone] are 145 nM and 7 nM.
Taken in the same sequence, the figures for `Nc1nc2ccc(C(=O)N3CCOC[C@@H]3c3ccc(C(F)(F)F)nc3)cc2c2c1COC2` (single isomer, unassigned) [Example 609] were 9110 nM and 207 nM.
Taken in the same sequence, the figures for `C[C@H]1OCc2c1c(N)nc1cnc(C(=O)N3CCOC[C@H]3c3ccc(C(F)(F)F)cn3)cc21` (racemic) [Example 357, ((3R)-4-amino-3-methyl-1,3-dihydrofuro[3,4-c][1,7]naphthyridin-8-yl)((3R)-3-(5-(trifluoromethyl)-2-pyridinyl)-4-morpholinyl)methanone and ((3R)-4-amino-3-methyl-1,3-dihydrofuro[3,4-c][1,7]naphthyridin-8-yl)((3S)-3-(5-(trifluoromethyl)-2-pyridinyl)-4-morpholinyl)methanone] were 9390 nM and 175 nM.
As for `C[C@@H]1COC[C@H](c2ccc(OC(F)(F)F)cn2)N1C(=O)c1cc2c3c(c(N)nc2cn1)[C@@H](C)OC3` (racemic) [Example 380, ((3R)-4-amino-3-methyl-1,3-dihydrofuro[3,4-c][1,7]naphthyridin-8-yl)((3R,5S)-3-methyl-5-(5-(trifluoromethoxy)-2-pyridinyl)-4-morpholinyl)methanone and ((3R)-4-amino-3-methyl-1,3-dihydrofuro[3,4-c][1,7]naphthyridin-8-yl)((3S,5R)-3-methyl-5-(5-(trifluoromethoxy)-2-pyridinyl)-4-morpholinyl)methanone], the IC50 in experiment [1] (Homo sapiens, HCT-116, 144 h) came out at 906 nM; in experiment [2] (HCT116-MTAP null, 144 h) it was 48 nM.
As to `C[C@H]1OCc2c1c(N)nc1cnc(C(=O)N3[C@@H](C)COC[C@H]3c3ccc(C(F)(F)F)cn3)cc21` (racemic) [Example 307, ((3R)-4-amino-3-methyl-1,3-dihydrofuro[3,4-c][1,7]naphthyridin-8-yl)((3R,5S)-3-methyl-5-(5-(trifluoromethyl)-2-pyridinyl)-4-morpholinyl)methanone and ((3R)-4-amino-3-methyl-1,3-dihydrofuro[3,4-c][1,7]naphthyridin-8-yl)((3S,5R)-3-methyl-5-(5-(trifluoromethyl)-2-pyridinyl)-4-morpholinyl)methanone], the IC50 was determined as 492 nM in experiment [1] (Homo sapiens, HCT-116, 144 h) and 22 nM in experiment [2] (HCT116-MTAP null, 144 h).

By IC50 is commonly meant the concentration that gives 50% inhibition.
